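Five compound concentrations were applied to cells in 96-well plates for 48 hours; endpoints were derived by simple linear interpolation of the resulting dose-response curve. At the GI50, growth is halved.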 Active and inactive are the calls of the source. Rule as the data show it: active = GI50 up to about 1.1 µM and inactive = higher.
What was measured:
Test in all cases: NCI tumour cell line growth inhibition, 48 h
A498 = tested on: A498
CAKI-1 = tested on: CAKI-1
HOP-62 = tested on: HOP-62
HT-29 = tested on: HT-29
Hs-578T = tested on: Hs-578T
K562 = tested on: K562
LOX IMVI = tested on: LOX IMVI
NCI-H23 = tested on: NCI-H23
OVCAR-4 = tested on: OVCAR-4
RPMI-8226 = tested on: RPMI-8226
SF-295 = tested on: SF-295
SK-OV-3 = tested on: SK-OV-3
SN12C = tested on: SN12C
TK-10 = tested on: TK-10
COLO 205 = tested on: COLO 205
SF-539 = tested on: SF-539
SK-MEL-5 = tested on: SK-MEL-5
CCRF-CEM = tested on: CCRF-CEM

Measured: GI50

Cl/C(=N\c1cccc2ccccc12)N(c1ccccc1)c1ccccc1
inactive: A498 > 100 µM | CAKI-1 > 100 µM | HOP-62 > 100 µM | HT-29 52.7 µM | Hs-578T > 100 µM | K562 31.8 µM | LOX IMVI > 100 µM | NCI-H23 > 100 µM | OVCAR-4 > 100 µM | RPMI-8226 27.1 µM | SF-295 67.6 µM | SK-OV-3 > 100 µM | SN12C > 100 µM | TK-10 72.3 µM

CNC/C(Cl)=N/S(=O)(=O)c1ccc(C)cc1
inactive: A498 20 µM | CAKI-1 13.2 µM | COLO 205 17.5 µM | HOP-62 14 µM | HT-29 19.2 µM | Hs-578T 28.8 µM | K562 36.1 µM | LOX IMVI 7.16 µM | NCI-H23 7.83 µM | OVCAR-4 10 µM | RPMI-8226 6.61 µM | SF-295 14.7 µM | SF-539 9.71 µM | SK-MEL-5 15 µM | SK-OV-3 22.8 µM | SN12C 9.75 µM | TK-10 12.7 µM

O=[N+]([O-])c1ccc(NN/N=N/c2ccc(-c3nc4ccccc4[nH]3)cc2)c([N+](=O)[O-])c1
inactive: A498 25.6 µM | CAKI-1 23.2 µM | CCRF-CEM 9.04 µM | COLO 205 27.7 µM | HOP-62 42.6 µM | HT-29 36.5 µM | Hs-578T 64.9 µM | K562 6.52 µM | LOX IMVI 7.48 µM | NCI-H23 29 µM | OVCAR-4 28.6 µM | SF-295 4.2 µM | SF-539 40.9 µM | SK-MEL-5 10.4 µM | SK-OV-3 94.6 µM | SN12C 64.6 µM | TK-10 > 100 µM

CCCC(=O)OC(OC(=O)CCC)c1ccc([N+](=O)[O-])o1
inactive: A498 > 100 µM | CAKI-1 17.7 µM | CCRF-CEM 28.2 µM | COLO 205 23.3 µM | HOP-62 62.8 µM | HT-29 22.6 µM | Hs-578T 35.5 µM | K562 34 µM | LOX IMVI 21.7 µM | NCI-H23 22.1 µM | RPMI-8226 22.6 µM | SF-295 > 100 µM | SF-539 35.7 µM | SK-MEL-5 32.4 µM | SK-OV-3 > 100 µM | SN12C 17.3 µM | TK-10 19.4 µM

CC(=O)c1c(C)n(C)c2c1nnc1ccccc12
inactive: A498 21.1 µM | CAKI-1 35.7 µM | CCRF-CEM 54.2 µM | COLO 205 30.9 µM | HOP-62 55.2 µM | HT-29 34.1 µM | Hs-578T 32.6 µM | LOX IMVI 43 µM | NCI-H23 37.5 µM | OVCAR-4 > 100 µM | RPMI-8226 38.6 µM | SF-295 40.2 µM | SF-539 34.8 µM | SK-MEL-5 32 µM | SK-OV-3 32.8 µM | SN12C 40.3 µM | TK-10 29.4 µM

CCCCCCCCCCCCc1ccsc1-c1ccc(-c2ccc(-c3sccc3CCCCCCCCCCCC)s2)s1
inactive: A498 > 100 µM | CAKI-1 > 100 µM | CCRF-CEM > 100 µM | COLO 205 > 100 µM | HOP-62 > 100 µM | HT-29 > 100 µM | Hs-578T > 100 µM | K562 > 100 µM | LOX IMVI > 100 µM | NCI-H23 > 100 µM | RPMI-8226 > 100 µM | SF-295 > 100 µM | SF-539 > 100 µM | SK-MEL-5 > 100 µM | SK-OV-3 > 100 µM | SN12C > 100 µM | TK-10 > 100 µM

CC1=CC2=C(C(N)=O)C(=O)OC2(C)C(c2ccccc2)C1 (stereo unspecified)
inactive: A498 > 100 µM | HOP-62 > 100 µM | HT-29 > 100 µM | Hs-578T > 100 µM | K562 > 100 µM | LOX IMVI > 100 µM | OVCAR-4 > 100 µM | RPMI-8226 > 100 µM | SF-295 > 100 µM | SF-539 > 100 µM | SK-OV-3 > 100 µM | SN12C > 100 µM | TK-10 > 100 µM

N#Cc1[nH]c(=O)n(-c2ccc([N+](=O)[O-])cc2)c1N
inactive: A498 > 10 µM | CCRF-CEM > 10 µM | COLO 205 > 10 µM | HOP-62 > 10 µM | HT-29 > 10 µM | Hs-578T > 10 µM | K562 > 10 µM | LOX IMVI > 10 µM | NCI-H23 > 10 µM | OVCAR-4 > 10 µM | RPMI-8226 > 10 µM | SF-295 > 10 µM | SF-539 > 10 µM | SK-MEL-5 > 10 µM | SK-OV-3 > 10 µM | SN12C > 10 µM | TK-10 > 10 µM

O=C(NC(Nc1ccc(F)c(Cl)c1)(C(F)(F)F)C(F)(F)F)OCc1ccccc1
inactive: A498 37.2 µM | CAKI-1 34.6 µM | CCRF-CEM 15.8 µM | COLO 205 17.8 µM | HOP-62 30.3 µM | HT-29 34 µM | Hs-578T 51.2 µM | K562 10.8 µM | LOX IMVI 64.7 µM | NCI-H23 71.4 µM | RPMI-8226 20.4 µM | SF-295 28.2 µM | SF-539 17.6 µM | SK-MEL-5 44.1 µM | SK-OV-3 26 µM | SN12C 31.2 µM | TK-10 63.1 µM

From ChEMBL document CHEMBL1201862, “PubChem BioAssay data set” (2004)
